# Data: paper doi:10.1101/2025.10.20.683491v1 (biorxiv, 2025)
# Target: hERG channel (Homo sapiens, UniProt Q12809, species not given)
# Assay: hERG channel inhibition assay
# Type: cell-based
# Sequence of hERG channel (Q12809 whole entry): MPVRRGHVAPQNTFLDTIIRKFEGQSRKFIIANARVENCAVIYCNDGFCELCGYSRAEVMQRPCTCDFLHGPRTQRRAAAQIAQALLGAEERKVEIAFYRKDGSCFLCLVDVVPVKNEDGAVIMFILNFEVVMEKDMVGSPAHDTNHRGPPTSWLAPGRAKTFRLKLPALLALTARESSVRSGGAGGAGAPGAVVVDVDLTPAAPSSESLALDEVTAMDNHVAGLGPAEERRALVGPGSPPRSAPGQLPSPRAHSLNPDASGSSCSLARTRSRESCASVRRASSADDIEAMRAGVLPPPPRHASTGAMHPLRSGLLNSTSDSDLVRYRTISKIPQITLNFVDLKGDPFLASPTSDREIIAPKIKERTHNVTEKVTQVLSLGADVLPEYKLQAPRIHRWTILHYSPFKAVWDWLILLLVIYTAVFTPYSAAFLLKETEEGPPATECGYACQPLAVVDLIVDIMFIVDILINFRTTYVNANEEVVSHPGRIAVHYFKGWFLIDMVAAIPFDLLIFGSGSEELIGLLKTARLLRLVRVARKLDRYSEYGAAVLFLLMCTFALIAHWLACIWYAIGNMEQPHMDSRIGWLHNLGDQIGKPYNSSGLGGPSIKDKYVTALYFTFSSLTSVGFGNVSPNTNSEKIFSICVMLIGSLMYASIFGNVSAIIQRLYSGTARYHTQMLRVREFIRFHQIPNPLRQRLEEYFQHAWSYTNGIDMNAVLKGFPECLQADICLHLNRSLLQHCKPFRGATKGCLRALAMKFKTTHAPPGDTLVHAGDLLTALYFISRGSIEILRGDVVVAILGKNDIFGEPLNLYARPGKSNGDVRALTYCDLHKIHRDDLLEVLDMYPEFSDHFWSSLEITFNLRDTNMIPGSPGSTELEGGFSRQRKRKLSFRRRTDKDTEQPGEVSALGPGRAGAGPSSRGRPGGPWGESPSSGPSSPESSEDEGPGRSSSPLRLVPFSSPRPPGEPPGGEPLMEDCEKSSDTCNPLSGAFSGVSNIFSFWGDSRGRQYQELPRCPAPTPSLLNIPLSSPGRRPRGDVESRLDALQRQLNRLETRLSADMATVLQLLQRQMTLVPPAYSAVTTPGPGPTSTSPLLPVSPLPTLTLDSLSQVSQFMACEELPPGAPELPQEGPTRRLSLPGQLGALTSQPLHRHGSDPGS
structure (smiles),measurement,value
CNC(=O)C[C@@H](NC(=O)C[C@H](Cc1c[nH]c2ccccc12)NC(=O)[C@@H]1CCCC[C@H]1NCc1cnc(-c2sc(C)nc2C)o1)c1ccccc1 [DEL-C1],IC50,> 100 µM
